These results are taken from article PMC6266305 (Nutrients, 2018).

Where two headings read alike, the source gives them in different places.

Holding throughout (assay type): in vitro ADME, human
For one data set, the system named is Caco-2 cells. The experiment in a line: Overall in vitro bioavailability: basolateral amount in Caco-2 cells relative to the initial amount in the test meal before in vitro digestion. To be noted: mean ± SD (n = 4). The protocol:
The in vitro digestion was carried out as previously described. […] The mixture was dispersed with Ultra-Turrax® (Ika) and artificial saliva (2.5 mL, pH 7) was added to the mixture. The sample was incubated for 10 min at 37 °C in a shaking incubator. […] Then, porcine pepsin (2 mL, 40 mg/mL in 0.1 M HCl) was added and the homogenate was incubated at 37 °C in a shaking incubator for 30 min simulating the gastric step. […] Samples were incubated in a shaking incubator at 37 °C for 30 min to complete the digestion process. The final mixture representing the digesta was centrifuged (2500 g for 1 h at 10 °C) to separate the aqueous fraction. […] The cytotoxicity on Caco-2 cells of the aqueous fractions from in vitro digestions was first assessed to determine the suitable dilution required before adding the aqueous fractions to the apical side of cell monolayers. […] To avoid any interference with DMEM or serum components, the aqueous fractions were diluted in HBSS. Caco-2 cells also received HBSS in both chambers 12 h before the experiments. At the beginning of each experiment, cells were rinsed twice with 1 mL of PBS. […] Cells were then rinsed twice with 1mL of PBS and scrapped in 0.5 mL of iced-cold PBS. All analyses were run in quadruplicate and samples were stored at −80 °C until further analysis. Results were expressed as means ± standard deviations. Differences between means were assessed using ANOVA followed by the post-hoc Tukey test for parametric data. […] Two parameters were assessed to express the bioavailability: a) the ratio between the mass of phenolic compounds recovered at the basolateral side and the initial mass added to the apical side, b) the ratio between the mass of phenolic compounds recovered at the basolateral side and the initial mass added to the meal.

The nature of data set [1]: Uptake and apical-to-basolateral transport by Caco-2 TC7 cell monolayers of diluted aqueous fractions from in vitro digestions. To be noted: human; for recovery at 6 h: Caco-2, 6 h; for Basolateral amount as percentage of initial apical amount (Caco-2 transport): whether from alperujo or alperujo-CD, read-out: Bioavailability (basolateral amount compared with initial apical amount). The protocol: (§1) Caco-2 TC7 cells were grown in DMEM supplemented with 16% (v/v) fetal bovine serum, 1% (v/v) non-essential amino-acids, and 1% (v/v) antibiotics (complete medium), as previously described. Cells were then seeded at a density of 15 000 cells/well, grown on transwell membrane (six-well plate, […] polycarbonate membrane; Becton Dickinson) and incubated in humidified atmosphere of 5% CO2 and 95% air at 37 °C during 21 days to obtain confluent and differentiated cell monolayers.
(§2) The cytotoxicity on Caco-2 cells of the aqueous fractions from in vitro digestions was first assessed to determine the suitable dilution required before adding the aqueous fractions to the apical side of cell monolayers. […] To avoid any interference with DMEM or serum components, the aqueous fractions were diluted in HBSS. Caco-2 cells also received HBSS in both chambers 12 h before the experiments. At the beginning of each experiment, cells were rinsed twice with 1 mL of PBS. Then, 1 mL of diluted aqueous fraction was added to the apical side and 2 mL of HBSS were added at the basolateral side. After an incubation period (2, 4, or 6 h) at 37 °C, both apical and basolateral media were harvested. Cells were then rinsed twice with 1mL of PBS and scrapped in 0.5 mL of iced-cold PBS. All analyses were run in quadruplicate and samples were stored at −80 °C until further analysis.
(§3) Gallic acid was chosen as internal standard as it was not present in the extract. Phenolic compounds were extracted from salivary, gastric and duodenal samples as follows: 0.3 mL of ethanol and 0.2 mL of n-hexane were added to 0.2 mL of sample and the mixture was stirred for 10 min using a vortex blender at maximal speed. After centrifugation (3560 g for 10 min at 4 °C), the lower phase was collected. The solid bottom was re-extracted with 0.3 mL of ethanol and vortexed for 10 min. The second ethanol phase recovered was pooled to the previously collected phase, and then dried using a Speed-Vac®. The dried extracts were dissolved in 200 µL of water. Apical media were directly injected. To concentrate them, basolateral media (1900 µL) were dried using a Speed-Vac®, and the dried residues were dissolved into 80 µL of water. All samples were stored at −80 °C before analysis.
(§4) Following the procedure by Gallardo et al. (2016), 50 µL of internal standard were added to harvested cells (in 500 µL PBS). Samples were then sonicated for 10 min at room temperature and centrifuged (10,000 g for 10 min at 4 °C). Supernatants were collected and evaporated to dryness. The dried residues were dissolved in 50 µL of water and stored at −80 °C before analysis.
(§5) All samples were analyzed by UHPLC-DAD-MS using an Acquity UPLC® system that was linked to both a diode-array detector and a Bruker Daltonics HCT Ultra Ion Traps mass spectrometer equipped with an Electron Spray Ionization (ESI) source operating in negative ion mode. The separation was performed on an Acquity C18 BEH column (50 × 2.1 mm i.d., 1.7 µm) kept at 35 °C. The solvents were (A) water/formic acid (99.5/0.5) and (B) acetonitrile. The proportions of solvent B used were: 0–10 min: 1–20%, 10–12 min: 20–30%, 12–14 min: 30–100%. Along the three steps of the gradient, the flow rate was 0.30, 0.35, and 0.40 mL/min. The injection volume was 1 μL for digestion and apical medium samples, and 10 µL for cells and basolateral samples. Chromatograms were acquired at 280 nm. The spectroscopic detection was performed in the range 200–800 nm with a resolution of 1.2 nm. The concentrations of phenolic compounds Tyr, CA, and p-Cm were estimated from calibration curves (peak area vs. concentration) with R² values greater than 0.99 [26].
(§6) Results were expressed as means ± standard deviations. Differences between means were assessed using ANOVA followed by the post-hoc Tukey test for parametric data. P values under 0.05 were considered to be significant. […]
(In general: Passage across Caco-2 layers is used to estimate intestinal permeability.)

A further data set concerns Caco-2 TC7 cells. Described as above. Particulars: for Amount found in the cytosolic compartment of Caco-2 cells, percentage of the initial amount at the apical side: 6 h incubation; for Metabolism in the intestinal cells: Caco-2 cells, inferred from total recovery. On the procedure: as §1, §2, §3, §4, §5, §6
Setting [2] is: from alperujo-CD, mean ± SD (n = 4), read-out: Bioavailability in Caco-2 cells (recovery on the basolateral side) as percentage of initial apical amount.
[3] abbreviates: from alperujo, mean ± SD (n = 4), read-out: Bioavailability in Caco-2 cells (recovery on the basolateral side) as percentage of initial apical amount.
Setting [4] is: read-out: Total recovery in the three compartments (apical, basolateral, cells).

As for `OCCc1ccc(O)cc1` [Tyr, tyrosol], the “Bioavailability in Caco-2 cells as percentage of initial amount in the test meal before in vitro digestion (bioaccessibility × absorption by Caco-2 cells)” value in the data set with Caco-2 cells (from alperujo-CD) is given as 16.8 ± 0.5 ^a %; with Caco-2 cells (from alperujo-CD, listed as tyrosol), 16.8 ± 0.5%; with Caco-2 cells (from alperujo), 16.2 ± 0.6 ^a %; in the data set on Caco-2 cells (from alperujo, listed as tyrosol), 16.2 ± 0.6%. The recovery at 6 h in data set [1] (setting [2]) is 25.2 ± 1.3%; in data set [1] (setting [3]) it was about 22.9%; in data set [1] (setting [4]) it was about 100%. In addition, the Basolateral amount as percentage of initial apical amount (Caco-2 transport) in data set [1] was over 20%. Moreover, the results for the “Amount found in the cytosolic compartment of Caco-2 cells, percentage of the initial amount at the apical side” value in the data set on Caco-2 TC7 cells (from alperujo) and in the data set with Caco-2 TC7 cells (from alperujo-CD) were 1.6 ± 0.1% and 1.4 ± 0.1%, respectively. For the same molecule, in the data set on Caco-2 TC7 cells, the “Metabolism in the intestinal cells” value is “no metabolism occurred”.

Regarding `O=C(O)/C=C/c1ccc(O)cc1` [p-Cm, p-coumaric acid], the “Bioavailability in Caco-2 cells as percentage of initial amount in the test meal before in vitro digestion (bioaccessibility × absorption by Caco-2 cells)” value with Caco-2 cells (from alperujo-CD) is reported as 37.2 ± 3.2 ^a %; with Caco-2 cells (from alperujo-CD, listed as p-coumaric acid), 37.2 ± 3.2%; with Caco-2 cells (from alperujo), 32.0 ± 3.2 ^a %; in the data set with Caco-2 cells (from alperujo, listed as p-coumaric acid), 32.0 ± 3.2%. In addition, the figures for the recovery at 6 h in data set [1] (setting [2]), in data set [1] (setting [3]) and in data set [1] (setting [4]) were 48.7 ± 2%, 40.2 ± 4.1% and about 100%, respectively. For the same molecule, in data set [1], the Basolateral amount as percentage of initial apical amount (Caco-2 transport) was over 40%. The “Amount found in the cytosolic compartment of Caco-2 cells, percentage of the initial amount at the apical side” value with Caco-2 TC7 cells (from alperujo) was 1.6 ± 0.1%; in the data set with Caco-2 TC7 cells (from alperujo-CD), 1.8 ± 0.2%. Moreover, the “Metabolism in the intestinal cells” value in the data set with Caco-2 TC7 cells was “no metabolism occurred”. Further, the “Improvement of local absorption by β-CD” value in the data set with Caco-2 TC7 cells (alperujo-CD vs alperujo, p < 0.05) was determined as 8.5 ± 4.2%.
